Tests used:
[1] = system: multi-potent progenitors (MPPs); assay: MLTA, MPPs: concentration-response and QSP model fit; type: cell-based, human; settings: Homo sapiens, 144 h
Method in brief: (§1)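 Six-day flow cytometry counts, bead-normalized and expressed relative to the mean of six vehicle wells, underlie each value. Cells were primary human bone marrow CD34+ cells cultured in SFEM II with cytokines promoting multi-lineage differentiation and self-renewal.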

[2] = system: granulocyte-macrophage progenitor (GMPs); assay: MLTA, GMPs: concentration-response and QSP model fit; type: cell-based, human; settings: Homo sapiens, 144 h
Method in brief: as §1

MK cells (MK-lin) = assay: MLTA, MK: concentration-response and QSP model fit; type: cell-based, human; settings: Homo sapiens, 144 h
Method in brief: as §1

[3] = system: granulocyte progenitor (Gran-lin prog); assay: MLTA, GranP: concentration-response and QSP model fit; type: cell-based, human; settings: Homo sapiens, 144 h
Method in brief: (§2)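 Drug was added at time 0 to thawed human bone marrow CD34+ cells in SFEM II plus a cytokine cocktail. After 6 days at 37°C, subsets were counted by surface-marker flow with TruCount beads. Vehicle-normalized, donor-pooled data then fed an Emax model separating anti-proliferative from cell-killing effects.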

[4] = system: lymphocyte progenitors (LymP); assay: MLTA, LymP: concentration-response and QSP model fit; type: cell-based, human; settings: Homo sapiens, Lymphocyte, 144 h
Method in brief: as §1

[5] = system: total viable cells (totalViableCells); assay: MLTA, total live cells concentration-response; type: cell-based; settings: Homo sapiens, 144 h, 6 days, normalized to vehicle control, read-out: total_live normalized cell count
Method in brief: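 Freeze-thawed primary human bone marrow CD34+ cells in SFEM II with cytokine cocktail, drug added day 0, 6 days at 37°C, 5% CO2. Live/dead counts by 17-parameter flow cytometry with DAPI exclusion, bead-normalized, volume-corrected to cells/mL. Normalized per donor to mean of six vehicle wells; 2–7 donors pooled.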

B cells (B-lin) = assay: MLTA, B-lin: concentration-response and QSP model fit; type: cell-based, human; settings: Homo sapiens, B-cell, 144 h
Method in brief: as §1

[6] = system: early erythroid cells (Eryth I); assay: MLTA, ErythI: concentration-response and QSP model fit; type: cell-based, human; settings: Homo sapiens, 144 h
Method in brief: as §2

[7] = QSP model fit of 6-day MLTA data

How did the activity at 0.0002 µM ([1]; dose 0.2 nM, 6 days, normalized to vehicle control, read-out: MPPs normalized cell count) turn out when `CN(C)C(=O)c1cc2cnc(Nc3ccc(N4CCNCC4)cn3)nc2n1C1CCCC1` [ribociclib] was run?
The activity at 0.0002 µM was 81.4%.

And the activity at 0.001 µM ([1]; dose 1 nM, 6 days, normalized to vehicle control, read-out: MPPs normalized cell count)?
The activity at 0.001 µM was 91.9%.

And the activity at 0.005 µM ([1]; dose 5 nM, 6 days, normalized to vehicle control, read-out: MPPs normalized cell count)?
The activity at 0.005 µM was 83.8%.

And the activity at 0.025 µM ([1]; dose 25 nM, 6 days, normalized to vehicle control, read-out: MPPs normalized cell count)?
Its activity at 0.025 µM is 63.7%.

What about the activity at 0.1 µM ([1]; dose 100 nM, 6 days, normalized to vehicle control, read-out: MPPs normalized cell count) of the same compound?
Its activity at 0.1 µM is 46.9%.

What about the activity at 0.5 µM ([1]; dose 500 nM, 6 days, normalized to vehicle control, read-out: MPPs normalized cell count) of the same compound?
Its activity at 0.5 µM is 28.4%.

And the activity at 2.5 µM ([1]; dose 2500 nM, 6 days, normalized to vehicle control, read-out: MPPs normalized cell count)?
Its activity at 2.5 µM is 16.9%.

And the Emax ([1]; parameter from QSP model fitting, read-out: Emax_drug_MPP)?
The Emax was 0.0237%.

What about the EC50 [2, 7] of the same compound?
Its EC50 is 0.141 µM.

And the activity at 0.0002 µM ([2]; dose 0.2 nM, 6 days, normalized to vehicle control, read-out: GMPs normalized cell count)?
The activity at 0.0002 µM was 91.2%.

And the activity at 0.001 µM ([2]; dose 1 nM, 6 days, normalized to vehicle control, read-out: GMPs normalized cell count)?
Its activity at 0.001 µM is 92.5%.

What about the activity at 0.005 µM ([2]; dose 5 nM, 6 days, normalized to vehicle control, read-out: GMPs normalized cell count) of the same compound?
The activity at 0.005 µM was 103%.

What about the activity at 0.025 µM ([2]; dose 25 nM, 6 days, normalized to vehicle control, read-out: GMPs normalized cell count) of the same compound?
The activity at 0.025 µM was 85%.

And the activity at 0.1 µM ([2]; dose 100 nM, 6 days, normalized to vehicle control, read-out: GMPs normalized cell count)?
Its activity at 0.1 µM is 73.4%.

And the activity at 0.5 µM ([2]; dose 500 nM, 6 days, normalized to vehicle control, read-out: GMPs normalized cell count)?
The activity at 0.5 µM was 54.4%.

And the activity at 2.5 µM ([2]; dose 2500 nM, 6 days, normalized to vehicle control, read-out: GMPs normalized cell count)?
The activity at 2.5 µM was 29.5%.

What about the EC50 (MK cells (MK-lin); [7]) of the same compound?
The EC50 was 2.04 µM.

And the activity at 0.0002 µM (MK cells (MK-lin); dose 0.2 nM, 6 days, normalized to vehicle control, read-out: MK normalized cell count)?
Its activity at 0.0002 µM is 102%.

And the activity at 0.001 µM (MK cells (MK-lin); dose 1 nM, 6 days, normalized to vehicle control, read-out: MK normalized cell count)?
The activity at 0.001 µM was 98.3%.

What about the activity at 0.005 µM (MK cells (MK-lin); dose 5 nM, 6 days, normalized to vehicle control, read-out: MK normalized cell count) of the same compound?
The activity at 0.005 µM was 91.7%.

And the activity at 0.025 µM (MK cells (MK-lin); dose 25 nM, 6 days, normalized to vehicle control, read-out: MK normalized cell count)?
Its activity at 0.025 µM is 83.6%.

What about the activity at 0.1 µM (MK cells (MK-lin); dose 100 nM, 6 days, normalized to vehicle control, read-out: MK normalized cell count) of the same compound?
The activity at 0.1 µM was 101%.

And the activity at 0.5 µM (MK cells (MK-lin); dose 500 nM, 6 days, normalized to vehicle control, read-out: MK normalized cell count)?
The activity at 0.5 µM was 64.4%.

And the activity at 2.5 µM (MK cells (MK-lin); dose 2500 nM, 6 days, normalized to vehicle control, read-out: MK normalized cell count)?
Its activity at 2.5 µM is 27.7%.

And the Emax (MK cells (MK-lin); parameter from QSP model fitting, read-out: Emax_drug_MK)?
Its Emax is 4.81%.

And the EC50 ([3]; QSP model fit of 6-day MLTA data, read-out: EC50GranP)?
Its EC50 is 0.0214 µM.

And the activity at 0.0002 µM ([3]; dose 0.2 nM, 6 days, normalized to vehicle control, read-out: GranPs normalized cell count)?
Its activity at 0.0002 µM is 87.1%.

And the activity at 0.001 µM ([3]; dose 1 nM, 6 days, normalized to vehicle control, read-out: GranPs normalized cell count)?
The activity at 0.001 µM was 105%.

What about the activity at 0.005 µM ([3]; dose 5 nM, 6 days, normalized to vehicle control, read-out: GranPs normalized cell count) of the same compound?
Its activity at 0.005 µM is 104%.

And the activity at 0.025 µM ([3]; dose 25 nM, 6 days, normalized to vehicle control, read-out: GranPs normalized cell count)?
Its activity at 0.025 µM is 81.3%.

What about the activity at 0.1 µM ([3]; dose 100 nM, 6 days, normalized to vehicle control, read-out: GranPs normalized cell count) of the same compound?
The activity at 0.1 µM was 70.3%.

And the activity at 0.5 µM ([3]; dose 500 nM, 6 days, normalized to vehicle control, read-out: GranPs normalized cell count)?
The activity at 0.5 µM was 34.4%.

And the activity at 2.5 µM ([3]; dose 2500 nM, 6 days, normalized to vehicle control, read-out: GranPs normalized cell count)?
Its activity at 2.5 µM is 10.8%.

And the Emax ([3]; parameter from QSP model fitting, read-out: Emax_drug_GranP)?
Its Emax is 6.43%.

And the activity at 0.0002 µM ([4]; dose 0.2 nM, 6 days, normalized to vehicle control, read-out: LymP normalized cell count)?
Its activity at 0.0002 µM is 87.8%.

And the activity at 0.001 µM ([4]; dose 1 nM, 6 days, normalized to vehicle control, read-out: LymP normalized cell count)?
Its activity at 0.001 µM is 95.2%.

And the activity at 0.005 µM ([4]; dose 5 nM, 6 days, normalized to vehicle control, read-out: LymP normalized cell count)?
Its activity at 0.005 µM is 100%.

What about the activity at 0.025 µM ([4]; dose 25 nM, 6 days, normalized to vehicle control, read-out: LymP normalized cell count) of the same compound?
Its activity at 0.025 µM is 61.7%.

And the activity at 0.1 µM ([4]; dose 100 nM, 6 days, normalized to vehicle control, read-out: LymP normalized cell count)?
The activity at 0.1 µM was 39.1%.

And the activity at 0.5 µM ([4]; dose 500 nM, 6 days, normalized to vehicle control, read-out: LymP normalized cell count)?
Its activity at 0.5 µM is 17.4%.

And the activity at 2.5 µM ([4]; dose 2500 nM, 6 days, normalized to vehicle control, read-out: LymP normalized cell count)?
Its activity at 2.5 µM is 4.31%.

And the Emax ([4]; parameter from QSP model fitting, read-out: Emax_drug_LymP)?
Its Emax is 0.032%.

What about the viability at 0.0002 µM ([5]; dose 0.2 nM) of the same compound?
Its viability at 0.0002 µM is 90%.

And the viability at 0.001 µM ([5]; dose 1 nM)?
Its viability at 0.001 µM is 97.8%.

And the viability at 0.005 µM ([5]; dose 5 nM)?
Its viability at 0.005 µM is 106%.

And the viability at 0.025 µM ([5]; dose 25 nM)?
The viability at 0.025 µM was 79.4%.

And the viability at 0.1 µM ([5]; dose 100 nM)?
Its viability at 0.1 µM is 66.6%.

And the viability at 0.5 µM ([5]; dose 500 nM)?
Its viability at 0.5 µM is 42.1%.

And the viability at 2.5 µM ([5]; dose 2500 nM)?
Its viability at 2.5 µM is 17.8%.

And the EC50 (B cells (B-lin); [7])?
Its EC50 is 0.0358 µM.

What about the activity at 0.0002 µM (B cells (B-lin); dose 0.2 nM, 6 days, normalized to vehicle control, read-out: B-lin normalized cell count) of the same compound?
Its activity at 0.0002 µM is 74.3%.

What about the activity at 0.001 µM (B cells (B-lin); dose 1 nM, 6 days, normalized to vehicle control, read-out: B-lin normalized cell count) of the same compound?
Its activity at 0.001 µM is 107%.

What about the activity at 0.005 µM (B cells (B-lin); dose 5 nM, 6 days, normalized to vehicle control, read-out: B-lin normalized cell count) of the same compound?
The activity at 0.005 µM was 79.4%.

What about the activity at 0.025 µM (B cells (B-lin); dose 25 nM, 6 days, normalized to vehicle control, read-out: B-lin normalized cell count) of the same compound?
Its activity at 0.025 µM is 61.2%.

What about the activity at 0.1 µM (B cells (B-lin); dose 100 nM, 6 days, normalized to vehicle control, read-out: B-lin normalized cell count) of the same compound?
The activity at 0.1 µM was 46.3%.

What about the activity at 0.5 µM (B cells (B-lin); dose 500 nM, 6 days, normalized to vehicle control, read-out: B-lin normalized cell count) of the same compound?
The activity at 0.5 µM was 28%.

What about the activity at 2.5 µM (B cells (B-lin); dose 2500 nM, 6 days, normalized to vehicle control, read-out: B-lin normalized cell count) of the same compound?
Its activity at 2.5 µM is 28.3%.

What about the Emax (B cells (B-lin); parameter from QSP model fitting, read-out: Emax_drug_B) of the same compound?
Its Emax is 30.5%.

What about the activity at 0.0002 µM ([6]; dose 0.2 nM, 6 days, normalized to vehicle control, read-out: ErythI normalized cell count) of the same compound?
Its activity at 0.0002 µM is 101%.

What about the activity at 0.001 µM ([6]; dose 1 nM, 6 days, normalized to vehicle control, read-out: ErythI normalized cell count) of the same compound?
The activity at 0.001 µM was 102%.

What about the activity at 0.005 µM ([6]; dose 5 nM, 6 days, normalized to vehicle control, read-out: ErythI normalized cell count) of the same compound?
Its activity at 0.005 µM is 108%.

What about the activity at 0.025 µM ([6]; dose 25 nM, 6 days, normalized to vehicle control, read-out: ErythI normalized cell count) of the same compound?
Its activity at 0.025 µM is 85.8%.

What about the activity at 0.1 µM ([6]; dose 100 nM, 6 days, normalized to vehicle control, read-out: ErythI normalized cell count) of the same compound?
The activity at 0.1 µM was 69%.

And the activity at 0.5 µM ([6]; dose 500 nM, 6 days, normalized to vehicle control, read-out: ErythI normalized cell count)?
The activity at 0.5 µM was 31.2%.

What about the activity at 2.5 µM ([6]; dose 2500 nM, 6 days, normalized to vehicle control, read-out: ErythI normalized cell count) of the same compound?
Its activity at 2.5 µM is 9.42%.

And the Emax ([6]; parameter from QSP model fitting, read-out: Emax_drug_ErythroidI)?
Its Emax is 0.05%.
